In PMC6576746, “Rational discovery of dual-indication multi-target PDE/Kinase inhibitor for precision anti-cancer therapy using structural systems pharmacology” (PLoS Computational Biology, 2019):

Assays:
Assay in all cases: cells
Set-up in all cases: species or system panel of human cancer cell lines; Eurofins OncoPanel proliferation; nuclei count by high-content fluorescence imaging, 10-point dose response
BCP-1 = conditions: BCP-1, 72 h, cell count, 3 days
How it was run: (§1)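 Cells in RPMI 1640/10% FBS or special medium received compound the day after seeding, with a time-zero plate; 3-day incubation at 37°C, 5% CO2. Nuclei imaged by fluorescence microscopy; 10 half-log doses from 100 μM, 0.1% DMSO. EC50, IC50, GI50 and activity area (0–10) from curve fits.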

Hs 821.T = conditions: 72 h, cell count, 3 days
How it was run: as §1

A-253 = conditions: Homo sapiens, A253, 72 h, cell count, 3 days
How it was run: as §1

HT-3 = conditions: Homo sapiens, HT-3, 72 h, cell count, 3 days
How it was run: as §1

CCF-STTG1 = conditions: Homo sapiens, CCF-STTG1, 72 h, cell count, 3 days
How it was run: as §1

SJSA1 = conditions: Homo sapiens, SJSA-1, 72 h, cell count, 3 days
How it was run: as §1

T24 = conditions: Homo sapiens, T-24, 72 h, cell count, 3 days
How it was run: as §1

22Rv1 = conditions: Homo sapiens, 22Rv1, 72 h, cell count, 3 days
How it was run: as §1

OVCAR3 = conditions: Homo sapiens, OVCAR-3, 72 h, cell count, 3 days
How it was run: as §1

C-33A = conditions: Homo sapiens, C-33-A, 72 h, cell count, 3 days
How it was run: as §1

AGS = conditions: Homo sapiens, AGS, 72 h, cell count, 3 days
How it was run: as §1

BC-1 = conditions: Homo sapiens, BC1, 72 h, cell count, 3 days
How it was run: as §1

A498 = conditions: Homo sapiens, A498, 72 h, cell count, 3 days
How it was run: as §1

REC-1 = conditions: Homo sapiens, Rec1, 72 h, cell count, 3 days
How it was run: as §1

[1] = 50% of maximum possible response

IC50 (SJSA1; [1]): 41.9 µM | GI50 (SJSA1; corrected for time zero): 18.4 µM | EC50 (SJSA1; curve inflection point): 41.9 µM | IC50 (T24; [1]): 6.95 µM | GI50 (T24; corrected for time zero): 6.6 µM | EC50 (T24; curve inflection point): 6.27 µM | IC50 (22Rv1; [1]): 55.6 µM | GI50 (22Rv1; corrected for time zero): 45.8 µM | EC50 (22Rv1; curve inflection point): 55.6 µM | IC50 (OVCAR3; [1]): 42.6 µM | GI50 (OVCAR3; corrected for time zero): 24.1 µM | EC50 (OVCAR3; curve inflection point): 42.6 µM | IC50 (AGS; [1]): 4.21 µM | GI50 (AGS; corrected for time zero): 3.91 µM | EC50 (AGS; curve inflection point): 3.93 µM
Structure (SMILES): C[C@@H]1CC(=O)NN=C1c1ccc(NN=C(C#N)C#N)cc1 [levosimendan]
IC50 (BCP-1; [1]): 12.6 µM | GI50 (BCP-1; corrected for time zero): 8.13 µM | EC50 (BCP-1; curve inflection point): 12.6 µM | IC50 (Hs 821.T; [1]): > 100 µM | GI50 (Hs 821.T; corrected for time zero): > 100 µM | EC50 (Hs 821.T; curve inflection point): > 100 µM | IC50 (A-253; [1]): 62.4 µM | GI50 (A-253; corrected for time zero): 41.7 µM | EC50 (A-253; curve inflection point): 62.4 µM | IC50 (HT-3; [1]): 91.3 µM | GI50 (HT-3; corrected for time zero): 48.5 µM | EC50 (HT-3; curve inflection point): 91.3 µM | IC50 (CCF-STTG1; [1]): > 100 µM | GI50 (CCF-STTG1; corrected for time zero): > 100 µM | EC50 (CCF-STTG1; curve inflection point): > 100 µM | IC50 (C-33A; [1]): 14.5 µM | GI50 (C-33A; corrected for time zero): 10.7 µM | EC50 (C-33A; curve inflection point): 14.5 µM | IC50 (BC-1; [1]): 18.9 µM | GI50 (BC-1; corrected for time zero): 14.6 µM | EC50 (BC-1; curve inflection point): 18.9 µM | IC50 (A498; [1]): 81.2 µM | GI50 (A498; corrected for time zero): 60.8 µM | EC50 (A498; curve inflection point): 81.2 µM | IC50 (REC-1; [1]): 25.2 µM | GI50 (REC-1; corrected for time zero): 9.04 µM | EC50 (REC-1; curve inflection point): 25.2 µM
